Activity calls are given as the source filed them.
Experiments:
[1] = molecular target: Lysine-specific demethylase 4A (Homo sapiens, UniProt O75164); experiment: inhibition of JMJD2A H3K9me3 demethylation – biochemical, DELFIA europium, cherry-picked samples, selectivity assay for GASC-1 inhibitor project, dose response (AID 488840)
[2] = Trypanosoma cruzi growth suppression in host cells – NIH3T3 host cells, beta-gal luminescence, confirmation (AID 2044); format: functional, cell-based;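 also: intracellular parasites grown in NIH/3T3 mouse fibroblasts as host cells; luminescent beta-galactosidase reporter signal from transgenic T. cruzi replicating inside host cells; inhibitors lower the luminescence signal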
[3] = NIH3T3 cell viability loss – ATP luminescence, mouse fibroblasts, counter-screen, dose response (AID 2010); format: functional, cell-based;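 also: cells exposed to compound for about 90 hours before reading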
CAAX prenyl protease 1 = CAAX prenyl protease 1 (Saccharomyces cerevisiae S288c, UniProt P47154); experiment: yeast CAAX protease Ste24 inhibition – biochemical, S. cerevisiae, plate reader, cherry-pick, dose response (AID 488815)
CAAX prenyl protease 2 = CAAX prenyl protease 2 (Homo sapiens, UniProt Q9Y256); experiment: inhibition of Ras-converting CAAX protease Rce1 – biochemical, yeast membranes, quenched-peptide fluorescence, cherry-pick, dose response (AID 588849)
[4] = potency of ADAM10 substrate cleavage blockers – biochemical, QFRET, dose response (AID 743254);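 also: ADAM10 enzyme with the DM2 quenched FRET peptide as substrate; EDANS fluorescence gain as the protease cuts the substrate; inhibitor potency against ADAM10 proteolytic activity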
[5] = molecular target: Disintegrin and metalloproteinase domain-containing protein 17 (Homo sapiens, UniProt P78536); experiment: inhibition of ADAM17 substrate cleavage – biochemical, quenched FRET substrate, counter-screen for ADAM10 exosite inhibitor project, dose response (AID 743253)
[6] = molecular target: T1, G-protein coupled receptor 35 (Homo sapiens, UniProt Q9HC97); experiment: inhibition of zaprinast-stimulated GPR35 beta-arrestin translocation – imaging, U2OS, beta-arrestin-GFP, zaprinast agonist, primary screen (AID 2058); format: functional;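 also: antagonist potency meaning inhibition of agonist-induced arrestin redistribution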
[7] = luciferase reporter signal suppression in cells – H4 neuroglioma cells, luminescence, dose response (AID 1990); format: functional, cell-based
[8] = molecular target: T1, G-protein coupled receptor 35; experiment: SAR Analysis for the identification of Selective Antagonists of ERK1/2 Activity in GPR35-Overexpressing U2OS Cells. [Related pubchem assays: 2079, 2058 ]; format: functional, cell-based
[9] = system: Streptococcus sp. 'group A'; experiment: Streptococcus pyogenes SK(-)GAS viability under kanamycin – luminescence, BacTiterGlo, confirmation, counter-screen for streptokinase expression inhibitor project, dose response (AID 1900); format: functional, organism-based
[10] = Luminescence Cell-Based Dose Response HTS to Identify Inhibitors of 5'UTR Stem-Loop Driven Prion Protein mRNA Translation in H4 Neuroglioblastoma Cells. [Related pubchem assays: 1827 (Project Summary), 1813 (Primary HTS)]; format: functional
[11] = alpha-synuclein stem-loop luciferase translation blockers – H4 neuroglioma cells, luminescence, confirmation (AID 1988); format: functional, cell-based
Streptokinase A = molecular target: T2, Streptokinase A (Streptococcus pyogenes serotype M1, UniProt P10520); experiment: viability-normalized secreted streptokinase activity reduction – plasminogen activation absorbance, OD405, dose response (AID 1914); format: functional, Streptococcus pyogenes M1 GAS;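 also: secreted streptokinase activity via plasminogen activation per viability signal from cell pellet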
T2 sequence (P10520 whole entry): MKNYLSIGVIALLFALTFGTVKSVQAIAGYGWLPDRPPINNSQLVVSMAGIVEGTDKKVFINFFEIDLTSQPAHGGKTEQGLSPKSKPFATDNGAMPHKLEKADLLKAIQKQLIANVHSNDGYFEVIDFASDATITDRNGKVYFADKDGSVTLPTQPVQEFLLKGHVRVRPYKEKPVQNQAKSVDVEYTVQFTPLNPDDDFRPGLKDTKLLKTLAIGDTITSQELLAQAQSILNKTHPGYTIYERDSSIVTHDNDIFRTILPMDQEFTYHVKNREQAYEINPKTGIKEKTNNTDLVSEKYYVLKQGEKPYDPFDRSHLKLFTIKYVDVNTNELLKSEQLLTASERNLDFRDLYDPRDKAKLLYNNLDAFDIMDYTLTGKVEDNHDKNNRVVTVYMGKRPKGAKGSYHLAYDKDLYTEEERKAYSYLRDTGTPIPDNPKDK

Streptococcus = experiment: GAS UMAA2166 growth inhibition – luminescence, BacTiterGlo, counter-screen for streptokinase expression inhibitor project, dose response (AID 1915); format: functional, organism-based;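 also: potency for reduction of bacterial viability or growth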
[12] = molecular target: Tyrosine-protein phosphatase non-receptor type 12 (Homo sapiens, UniProt Q05209); experiment: SAR Selectivity Analysis of small molecule inhibitors of PEST using pCAP in a fluorescence assay. [Related pubchem assays (depositor defined):AID1779, AID1784, AID2135]; format: functional
[13] = molecular target: T3, Tyrosine-protein phosphatase non-receptor type 22 (Homo sapiens, UniProt Q9Y2R2); experiment: SAR LYP1 Fluorescent Assay using OMFP substrate for In Vitro dose response studies - Set 3. [Related pubchem assays (depositor defined):AID1779, AID1784, AID2140, AID2686]; format: functional
T3 sequence (Q9Y2R2 whole entry): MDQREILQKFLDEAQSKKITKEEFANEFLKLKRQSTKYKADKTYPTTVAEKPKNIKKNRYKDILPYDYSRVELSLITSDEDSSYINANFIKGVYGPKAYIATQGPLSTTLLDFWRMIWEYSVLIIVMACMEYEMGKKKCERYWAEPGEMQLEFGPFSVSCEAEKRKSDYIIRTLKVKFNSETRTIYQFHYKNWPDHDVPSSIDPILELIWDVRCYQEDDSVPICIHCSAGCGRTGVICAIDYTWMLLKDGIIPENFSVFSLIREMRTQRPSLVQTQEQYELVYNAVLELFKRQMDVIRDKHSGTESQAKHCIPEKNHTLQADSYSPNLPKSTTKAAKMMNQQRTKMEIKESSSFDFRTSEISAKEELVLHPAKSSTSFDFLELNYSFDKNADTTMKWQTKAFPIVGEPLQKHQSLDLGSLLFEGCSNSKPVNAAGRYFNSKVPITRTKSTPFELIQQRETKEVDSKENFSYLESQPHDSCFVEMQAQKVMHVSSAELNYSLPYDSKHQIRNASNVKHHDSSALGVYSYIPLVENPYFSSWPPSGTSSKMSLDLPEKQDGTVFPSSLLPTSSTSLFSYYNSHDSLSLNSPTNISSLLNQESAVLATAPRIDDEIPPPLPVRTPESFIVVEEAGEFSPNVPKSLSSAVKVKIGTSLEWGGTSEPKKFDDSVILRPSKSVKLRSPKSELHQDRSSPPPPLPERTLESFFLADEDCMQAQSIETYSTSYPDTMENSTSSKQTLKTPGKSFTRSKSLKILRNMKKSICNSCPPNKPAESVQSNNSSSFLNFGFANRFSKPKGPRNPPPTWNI

[14] = molecular target: T4, Tyrosine-protein phosphatase non-receptor type 7 (Homo sapiens, UniProt P35236); experiment: inhibition of hematopoietic tyrosine phosphatase HePTP – biochemical, set 2, SAR follow-up (AID 449736); format: functional
T4 sequence (P35236 whole entry): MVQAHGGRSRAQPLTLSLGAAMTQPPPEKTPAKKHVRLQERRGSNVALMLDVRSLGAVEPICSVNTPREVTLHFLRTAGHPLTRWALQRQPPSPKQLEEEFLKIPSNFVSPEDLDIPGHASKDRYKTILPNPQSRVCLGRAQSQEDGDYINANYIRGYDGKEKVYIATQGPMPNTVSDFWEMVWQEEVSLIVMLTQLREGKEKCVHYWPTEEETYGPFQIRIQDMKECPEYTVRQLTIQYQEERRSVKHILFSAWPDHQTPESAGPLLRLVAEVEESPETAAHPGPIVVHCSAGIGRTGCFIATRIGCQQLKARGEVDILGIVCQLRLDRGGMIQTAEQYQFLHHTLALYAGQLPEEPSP

[15] = molecular target: G-protein coupled receptor 55 (Homo sapiens, UniProt Q9Y2T6); experiment: blockers of GPR55 signalling, imaged – imaging, image-based, counter-screen for GPR35 antagonist project, SAR follow-up (AID 2397); format: functional
[16] = molecular target: Sphingosine 1-phosphate receptor 2 (Homo sapiens, UniProt O95136); experiment: Dose Response Cell Based Assay for Antagonists of the S1P2 Receptor. [Related pubchem assays: 856, 736 ]; format: functional
Tumor necrosis factor = Tumor necrosis factor (Homo sapiens, UniProt P01375); experiment: analog potency on TNFa NF-kB signaling – cell-based, revised, SAR follow-up (AID 2337); format: functional
[17] = molecular target: T5, Nucleotide-binding oligomerization domain-containing protein 1 (Homo sapiens, UniProt Q9Y239); experiment: blockers of NOD1 pathway activity – revised, SAR follow-up (AID 2333); format: functional
T5 sequence (Q9Y239 whole entry): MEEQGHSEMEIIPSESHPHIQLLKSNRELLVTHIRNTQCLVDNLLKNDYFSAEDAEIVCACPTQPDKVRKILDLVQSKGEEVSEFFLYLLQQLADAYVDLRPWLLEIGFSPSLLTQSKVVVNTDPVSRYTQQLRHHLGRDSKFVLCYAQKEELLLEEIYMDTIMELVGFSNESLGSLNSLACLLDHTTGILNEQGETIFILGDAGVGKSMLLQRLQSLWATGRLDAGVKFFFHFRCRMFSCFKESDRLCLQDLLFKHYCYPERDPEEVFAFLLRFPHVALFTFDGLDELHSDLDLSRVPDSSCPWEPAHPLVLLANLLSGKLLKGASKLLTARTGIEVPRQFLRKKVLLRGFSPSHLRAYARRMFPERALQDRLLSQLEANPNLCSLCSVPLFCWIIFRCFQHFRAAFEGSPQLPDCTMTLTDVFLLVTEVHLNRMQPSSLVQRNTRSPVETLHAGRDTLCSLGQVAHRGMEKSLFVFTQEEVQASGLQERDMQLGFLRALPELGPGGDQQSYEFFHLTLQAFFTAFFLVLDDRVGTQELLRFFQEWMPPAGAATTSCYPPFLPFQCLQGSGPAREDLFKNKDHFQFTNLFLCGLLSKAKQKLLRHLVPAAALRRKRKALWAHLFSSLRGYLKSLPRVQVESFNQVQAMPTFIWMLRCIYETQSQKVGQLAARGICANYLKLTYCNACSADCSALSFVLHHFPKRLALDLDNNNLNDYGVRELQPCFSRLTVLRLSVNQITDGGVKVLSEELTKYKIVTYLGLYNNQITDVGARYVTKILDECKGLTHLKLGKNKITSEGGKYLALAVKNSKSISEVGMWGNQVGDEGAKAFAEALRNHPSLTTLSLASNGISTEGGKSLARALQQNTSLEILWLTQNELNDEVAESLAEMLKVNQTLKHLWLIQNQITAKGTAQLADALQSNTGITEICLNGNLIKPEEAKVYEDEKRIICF

[18] = HEK-293T viability loss after treatment – luminescence, T-cell screen hits, cytotoxicity control for TCR NF-kB inhibitor project, dose response (AID 489026); format: functional, cell-based;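 also: cells exposed to compound about 14 hours before the viability readout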
Cytochrome P450 3A4 = Cytochrome P450 3A4 (Homo sapiens, UniProt P08684);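 also: CYP3A4 tested as one member of a cytochrome P450 panel screen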
HEK293 = experiment: cells; settings: Homo sapiens;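 also: cells exposed to compound for 14 hours overnight before viability readout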

T1 sequence (Q9HC97 whole entry): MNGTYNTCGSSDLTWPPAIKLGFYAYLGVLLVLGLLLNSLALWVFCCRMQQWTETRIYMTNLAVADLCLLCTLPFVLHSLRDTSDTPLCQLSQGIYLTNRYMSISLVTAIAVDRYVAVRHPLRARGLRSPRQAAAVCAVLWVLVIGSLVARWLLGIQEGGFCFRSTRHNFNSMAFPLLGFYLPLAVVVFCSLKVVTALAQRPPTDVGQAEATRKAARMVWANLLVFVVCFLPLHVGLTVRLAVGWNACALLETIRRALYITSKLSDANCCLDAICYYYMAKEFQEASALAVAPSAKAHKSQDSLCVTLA
Sequence of Tumor necrosis factor (P01375 whole entry, the tested form may be a part): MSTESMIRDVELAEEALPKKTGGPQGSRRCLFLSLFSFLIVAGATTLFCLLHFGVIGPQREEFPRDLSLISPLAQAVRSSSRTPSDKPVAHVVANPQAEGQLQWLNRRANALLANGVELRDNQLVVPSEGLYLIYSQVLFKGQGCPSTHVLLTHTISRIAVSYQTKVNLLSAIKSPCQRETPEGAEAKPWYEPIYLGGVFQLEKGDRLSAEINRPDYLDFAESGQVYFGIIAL
Sequence of Tyrosine-protein phosphatase non-receptor type 12 (Q05209 whole entry): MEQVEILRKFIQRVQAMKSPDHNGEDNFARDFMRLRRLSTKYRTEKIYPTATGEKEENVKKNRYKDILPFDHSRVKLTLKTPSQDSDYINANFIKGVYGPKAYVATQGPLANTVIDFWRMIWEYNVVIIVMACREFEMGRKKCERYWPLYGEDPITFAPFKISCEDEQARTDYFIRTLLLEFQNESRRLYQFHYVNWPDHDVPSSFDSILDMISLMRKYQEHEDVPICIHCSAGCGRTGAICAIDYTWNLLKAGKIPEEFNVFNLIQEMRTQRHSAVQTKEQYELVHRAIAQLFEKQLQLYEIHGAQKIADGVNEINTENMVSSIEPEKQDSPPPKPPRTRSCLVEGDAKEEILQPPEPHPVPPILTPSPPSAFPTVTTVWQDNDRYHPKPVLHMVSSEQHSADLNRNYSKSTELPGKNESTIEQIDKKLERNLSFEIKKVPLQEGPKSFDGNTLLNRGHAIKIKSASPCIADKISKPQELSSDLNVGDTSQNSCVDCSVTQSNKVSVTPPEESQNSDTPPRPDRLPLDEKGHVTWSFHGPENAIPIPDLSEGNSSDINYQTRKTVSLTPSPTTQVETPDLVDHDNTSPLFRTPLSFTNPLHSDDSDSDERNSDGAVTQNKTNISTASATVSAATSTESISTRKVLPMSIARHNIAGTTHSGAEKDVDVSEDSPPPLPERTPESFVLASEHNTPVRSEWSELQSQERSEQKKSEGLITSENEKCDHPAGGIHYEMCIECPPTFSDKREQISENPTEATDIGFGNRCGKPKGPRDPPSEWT
Sequence of Lysine-specific demethylase 4A (O75164 whole entry): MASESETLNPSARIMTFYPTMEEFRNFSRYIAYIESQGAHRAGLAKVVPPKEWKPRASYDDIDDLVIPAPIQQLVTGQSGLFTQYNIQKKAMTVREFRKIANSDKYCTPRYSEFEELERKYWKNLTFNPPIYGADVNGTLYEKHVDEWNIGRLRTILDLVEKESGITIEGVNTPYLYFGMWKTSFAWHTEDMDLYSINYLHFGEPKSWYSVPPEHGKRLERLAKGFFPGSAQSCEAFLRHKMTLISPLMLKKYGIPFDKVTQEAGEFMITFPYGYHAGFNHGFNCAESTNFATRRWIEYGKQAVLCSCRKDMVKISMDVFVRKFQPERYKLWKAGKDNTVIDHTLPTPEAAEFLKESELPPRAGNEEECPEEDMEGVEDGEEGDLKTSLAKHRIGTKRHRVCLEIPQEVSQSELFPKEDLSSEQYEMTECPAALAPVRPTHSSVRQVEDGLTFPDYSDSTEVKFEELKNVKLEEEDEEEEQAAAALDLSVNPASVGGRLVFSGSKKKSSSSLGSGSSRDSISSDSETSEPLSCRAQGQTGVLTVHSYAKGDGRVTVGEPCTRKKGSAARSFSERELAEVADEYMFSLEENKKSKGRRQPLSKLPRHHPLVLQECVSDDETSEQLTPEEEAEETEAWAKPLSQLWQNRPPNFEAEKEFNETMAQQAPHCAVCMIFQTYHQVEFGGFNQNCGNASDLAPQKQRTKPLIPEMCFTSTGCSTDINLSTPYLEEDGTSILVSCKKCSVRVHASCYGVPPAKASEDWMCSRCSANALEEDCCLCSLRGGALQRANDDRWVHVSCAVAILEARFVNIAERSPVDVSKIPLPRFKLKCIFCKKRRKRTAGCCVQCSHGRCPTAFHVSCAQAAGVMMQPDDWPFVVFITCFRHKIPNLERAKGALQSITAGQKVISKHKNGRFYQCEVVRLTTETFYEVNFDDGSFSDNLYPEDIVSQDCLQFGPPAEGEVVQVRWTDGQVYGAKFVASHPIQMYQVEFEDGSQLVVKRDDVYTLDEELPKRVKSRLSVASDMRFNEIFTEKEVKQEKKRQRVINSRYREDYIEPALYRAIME
Sequence of Cytochrome P450 3A4 (P08684 whole entry): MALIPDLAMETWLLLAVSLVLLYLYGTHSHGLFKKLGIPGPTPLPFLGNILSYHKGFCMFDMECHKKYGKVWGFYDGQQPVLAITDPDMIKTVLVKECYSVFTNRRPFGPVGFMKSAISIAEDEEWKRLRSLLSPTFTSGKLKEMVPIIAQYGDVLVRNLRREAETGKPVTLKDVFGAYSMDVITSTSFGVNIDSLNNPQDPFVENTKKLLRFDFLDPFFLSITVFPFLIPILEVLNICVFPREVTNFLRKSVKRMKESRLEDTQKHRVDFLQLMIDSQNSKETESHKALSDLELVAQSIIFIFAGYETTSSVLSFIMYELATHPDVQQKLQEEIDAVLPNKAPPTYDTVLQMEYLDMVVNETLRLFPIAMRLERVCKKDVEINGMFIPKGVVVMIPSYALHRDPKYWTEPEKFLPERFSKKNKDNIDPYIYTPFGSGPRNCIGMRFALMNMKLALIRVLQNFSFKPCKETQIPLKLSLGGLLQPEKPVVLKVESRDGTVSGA
Sequence of Disintegrin and metalloproteinase domain-containing protein 17 (P78536 whole entry, the tested form may be a part): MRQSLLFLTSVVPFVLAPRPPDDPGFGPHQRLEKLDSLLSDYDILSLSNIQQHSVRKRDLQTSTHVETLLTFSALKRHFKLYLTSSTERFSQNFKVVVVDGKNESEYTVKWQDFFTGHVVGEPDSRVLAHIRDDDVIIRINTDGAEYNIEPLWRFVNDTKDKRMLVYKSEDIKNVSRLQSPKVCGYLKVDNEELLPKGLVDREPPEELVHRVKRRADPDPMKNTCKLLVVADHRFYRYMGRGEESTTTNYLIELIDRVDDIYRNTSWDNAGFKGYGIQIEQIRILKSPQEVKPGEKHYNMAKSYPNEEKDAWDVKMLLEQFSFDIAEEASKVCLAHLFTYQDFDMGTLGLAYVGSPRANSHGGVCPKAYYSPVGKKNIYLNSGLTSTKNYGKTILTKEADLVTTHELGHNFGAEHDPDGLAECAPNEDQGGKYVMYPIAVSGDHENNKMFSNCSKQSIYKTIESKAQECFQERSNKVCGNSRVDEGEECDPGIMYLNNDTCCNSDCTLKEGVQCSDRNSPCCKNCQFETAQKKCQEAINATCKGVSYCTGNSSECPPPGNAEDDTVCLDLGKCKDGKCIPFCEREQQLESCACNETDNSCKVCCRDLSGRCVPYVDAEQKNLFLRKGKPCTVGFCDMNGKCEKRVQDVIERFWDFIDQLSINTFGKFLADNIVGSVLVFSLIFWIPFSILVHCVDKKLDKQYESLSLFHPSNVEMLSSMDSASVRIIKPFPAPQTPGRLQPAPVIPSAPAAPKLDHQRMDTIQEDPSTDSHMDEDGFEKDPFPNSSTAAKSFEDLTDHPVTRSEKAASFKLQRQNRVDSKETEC
Sequence of G-protein coupled receptor 55 (Q9Y2T6 whole entry): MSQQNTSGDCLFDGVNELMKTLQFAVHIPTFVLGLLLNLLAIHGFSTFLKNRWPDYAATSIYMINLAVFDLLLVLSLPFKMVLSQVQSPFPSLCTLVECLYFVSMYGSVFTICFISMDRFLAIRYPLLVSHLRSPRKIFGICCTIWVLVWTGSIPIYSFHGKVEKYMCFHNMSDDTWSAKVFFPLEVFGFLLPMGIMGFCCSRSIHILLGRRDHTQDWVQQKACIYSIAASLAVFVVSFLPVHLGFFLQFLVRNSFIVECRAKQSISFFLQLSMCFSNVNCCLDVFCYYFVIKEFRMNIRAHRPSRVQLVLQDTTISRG
Sequence of CAAX prenyl protease 2 (Q9Y256 whole entry): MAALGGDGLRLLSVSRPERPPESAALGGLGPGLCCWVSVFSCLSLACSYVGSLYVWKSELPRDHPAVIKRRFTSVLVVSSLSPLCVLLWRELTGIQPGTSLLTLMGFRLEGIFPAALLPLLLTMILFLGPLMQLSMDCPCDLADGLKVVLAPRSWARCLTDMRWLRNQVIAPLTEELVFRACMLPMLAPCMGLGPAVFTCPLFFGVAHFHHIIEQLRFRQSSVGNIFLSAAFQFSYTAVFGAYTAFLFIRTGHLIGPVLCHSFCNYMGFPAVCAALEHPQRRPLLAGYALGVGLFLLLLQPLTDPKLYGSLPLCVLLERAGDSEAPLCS
Sequence of CAAX prenyl protease 1 (P47154 whole entry): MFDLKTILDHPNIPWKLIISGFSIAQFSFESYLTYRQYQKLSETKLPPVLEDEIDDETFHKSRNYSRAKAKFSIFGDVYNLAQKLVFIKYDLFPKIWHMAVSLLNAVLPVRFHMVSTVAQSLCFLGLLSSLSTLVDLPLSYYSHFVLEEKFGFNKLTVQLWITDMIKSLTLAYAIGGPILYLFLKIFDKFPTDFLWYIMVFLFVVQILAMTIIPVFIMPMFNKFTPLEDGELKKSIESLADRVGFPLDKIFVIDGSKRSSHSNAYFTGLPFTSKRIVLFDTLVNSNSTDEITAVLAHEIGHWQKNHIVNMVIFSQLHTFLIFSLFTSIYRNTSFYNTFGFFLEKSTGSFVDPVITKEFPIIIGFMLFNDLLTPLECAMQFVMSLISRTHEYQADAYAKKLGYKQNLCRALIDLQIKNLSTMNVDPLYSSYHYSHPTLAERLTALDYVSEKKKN

Cc1ccc(S(=O)(=O)Nc2ccc3c(c2)CC(=O)N([C@H](C)CO)C[C@@H](C)[C@H](CN(C)S(=O)(=O)c2ccccc2)O3)cc1
AC50 [1]: > 60 µM (inactive)

NC(=O)[C@@H]1CC2(CC(c3cccc(NC(=O)CC(c4ccccc4)c4ccccc4)c3)=NO2)CN1C(=O)c1ccc(Cl)cc1 (stereo not given in full)
EC50 [2]: 0.619 µM (active)
EC50 [3]: > 60 µM (not active)
AC50 (CAAX prenyl protease 1): 5.27 µM (active)
AC50 (CAAX prenyl protease 2): 41.7 µM (active)
IC50 [4]: > 7.72 µM (active)
IC50 [5]: > 69.5 µM (inactive)

CCc1ccc(/C=C2\SC(=S)N(CCCC(=O)Nc3ccc(C(=O)O)cc3)C2=O)cc1
IC50 [6]: < 0.5 µM (active)
EC50 [7]: 0.248 µM (active)
IC50 [8]: 0.636 µM (active)
EC50 [9]: 7.29 µM (active)
EC50 [10]: 7.61 µM (active)
EC50 [11]: 3.67 µM (active)
EC50 (Streptokinase A): > 150 µM (not active)
EC50 (Streptococcus): > 150 µM (not active)
IC50 [12]: 9.28 µM (active)
IC50 [13]: 76.8 µM (active)
IC50 [14]: 0.581 µM (active)
IC50 [15]: 17.3 µM (inactive)

O=C(Nc1ccc(S(=O)(=O)N2CCOCC2)cc1)c1ccc(CN2CCc3ccccc3C2)cc1
IC50 [16]: 3.77 µM (active)
IC50 (Tumor necrosis factor): 0.627 µM (active)
IC50 [17]: 0.347 µM (active)
IC50 [18]: > 80 µM (inactive)
AC50 (Cytochrome P450 3A4): inconclusive
IC50 (HEK293): 5.46 µM (active)

From ChEMBL document CHEMBL1201862, “PubChem BioAssay data set” (2004)
